The text below walks through data of patent US8541462B2, “Tetrahydrocarbazole derivatives as ligands of G-protein coupled receptors” (AEterna Zentaris GmbH, priority 2007, dated 2013).

Structures are written as SMILES.

The nature of this series: Metabolic stability testing in liver microsomes. Type of series: in vitro ADME. The conditions noted are these: mixed-gender human liver microsomes, 1 mg microsomal protein/mL, initial concentration 10 μM, 60 minutes at 37° C.; WO 2006/005484-substance 7 = 100%. As to the method:
Subcellular fractions of different tissues can be prepared easily by ultracentrifugation. Most commonly these are prepared from the liver of animals and human donors to gain information about the potential hepatic clearance of compounds (first-pass elimination of drugs). Human or animal (e.g. dog, mouse, rat) subcellular fraction like liver microsomes, or possibly the fraction called S9 have therefore become a very commonly and widely used as an in vitro model to investigate mainly cytochrome P450 dependent phase I (but also phase II) metabolism that takes place in the liver.
In order to reflect the standard proportion of the enzymes in human and animal livers, liver microsomes are usually pooled from a number of […] of the same sex (or mixed-gender). By supplementing the liver microsomes with relevant cofactors and other components it is possible to investigate and distinguish between CYPs, flavin-containing monooxygenase (FMO) and UDP-glucuronosyltransferase (UGT) activities.
Selected compounds of the invention were tested for their stability in mixed-gender human liver microsomes and compared to pertinent prior art compounds.
Under the test conditions applied (1 mg microsomal protein/mL, initial concentration of 10 μM, and incubation for 60 minutes at 37° C.) the following normalized results were obtained.
(Liver microsomes are a subcellular fraction often used to study metabolism.)
Regarding `CCOC(=O)c1csc(C(NC(=O)[C@@]2(NC(=O)[C@@H](NC(=O)Cc3ccccc3F)[C@@H](C)CC)CCc3[nH]c4c(C(F)(F)F)cccc4c3C2)[C@@H](C)CC)n1` (stereo in doubt) [compound 251, 2-{(1R,2S)-1-[((R)-3-{(2S,3S)-2-[2-(2-Fluoro-phenyl)-acetylamino]-3-methyl-pentanoylamino}-8-trifluoromethyl-2,3,4,9-tetrahydro-1H-carbazole-3-carbonyl)-amino]-2-methyl-butyl}-thiazole-4-carboxylic acid ethyl ester], the Normalized microsomal stability was 1033%.
As to `CCNC(=O)Nc1nnc([C@@H](NC(=O)[C@]2(NC(=O)[C@@H](NC(=O)Cc3ccccc3F)C(C)CC)CCc3[nH]c4c(C(F)(F)F)cccc4c3C2)C(C)CC)o1` (stereo partly drawn) [Compound 31, (S)-3-{(S)-2-[2-(2-Fluoro-phenyl)-acetylamino]-3-methyl-pentanoylamino}-8-trifluoromethyl-2,3,4,9-tetrahydro-1H-carbazole-3-carboxylic acid {(S)-1-[5-(3-ethyl-ureido)-[1,3,4]oxadiazol-2-yl]-2-methyl-butyl}-amide], the Normalized microsomal stability was found to be 276%.
For the compound `CCC(C)[C@H](NC(=O)Cc1ccccc1F)C(=O)N[C@]1(C(=O)N[C@H](C(=O)NCN2CCOCC2)C(C)CC)CCc2[nH]c3c(C(F)(F)F)cccc3c2C1` (some centres unmarked) [Compound 36], the Normalized microsomal stability was found to be 774%.
For the compound `CCC(C)[C@H](NC(=O)Cc1ccccc1F)C(=O)N[C@]1(C(=O)N[C@H](C(=S)NCCN2CCOCC2)C(C)CC)CCc2[nH]c3c(C(F)(F)F)cccc3c2C1` (stereo partly drawn) [Compound 54, (R)-3-{(S)-2-[2-(2-Fluoro-phenyl)-acetylamino]-3-methyl-pentanoylamino}-8-trifluoromethyl-2,3,4,9-tetrahydro-1H-carbazole-3-carboxylic acid [(S)-2-methyl-1-(2-morpholin-4-yl-ethylthiocarbamoyl)-butyl]-amide], the Normalized microsomal stability stood at 611%.
`CCC(C)[C@H](NC(=O)Cc1ccccc1F)C(=O)N[C@]1(C(=O)N[C@H](C(=O)NC2CCC(O)CC2)C(C)CC)CCc2[nH]c3c(C(F)(F)F)cccc3c2C1` (stereo partly drawn) [Compound 73, (R)-3-{(S)-2-[2-(2-Fluoro-phenyl)-acetylamino]-3-methyl-pentanoylamino}-8-trifluoromethyl-2,3,4,9-tetrahydro-1H-carbazole-3-carboxylic acid [(S)-1-(4-hydroxy-cyclohexylcarbamoyl)-2-methyl-butyl]-amide] displayed a Normalized microsomal stability of 624%.
`CCC(C)[C@H](NC(=O)Cc1ccccc1F)C(=O)N[C@]1(C(=O)N[C@H](C(=S)NCCCCn2cncn2)C(C)CC)CCc2[nH]c3c(C(F)(F)F)cccc3c2C1` (stereo partly drawn) [compound 114, (R)-3-{(S)-2-[2-(2-Fluoro-phenyl)-acetylamino]-3-methyl-pentanoylamino}-8-trifluoromethyl-2,3,4,9-tetrahydro-1H-carbazole-3-carboxylic acid [(S)-2-methyl-1-1(4-[1,2,4]triazol-1-ylbutylthiocarbamoyl)-butyl]-amide] showed a Normalized microsomal stability of 537%.
`CCC(C)[C@H](NC(=O)Cc1ccccc1F)C(=O)N[C@]1(C(=O)N[C@H](C(=O)Nc2ccc3ncccc3c2)C(C)CC)CCc2[nH]c3c(C(F)(F)F)cccc3c2C1` (stereo partly drawn) [compound 137, (R)-3-{(S)-2-[2-(2-Fluoro-phenyl)-acetylamino]-3-methyl-pentanoylamino}-8-trifluoromethyl-2,3,4,9-tetrahydro-1H-carbazole-3-carboxylic acid [(S)-2-methyl-1-(quinolin-6-ylcarbamoyl)-butyl]-amide] gave a Normalized microsomal stability of 1296%.
In turn, `CCC(C)[C@H](NC(=O)Cc1ccccc1F)C(=O)N[C@]1(C(=O)N[C@H](C(=O)NNc2ccccc2)C(C)CC)CCc2[nH]c3c(C(F)(F)F)cccc3c2C1` (stereo partly drawn) [compound 144, (R)-3-{(S)-2-[2-(2-Fluoro-phenyl)-acetylamino]-3-methyl-pentanoylamino}-8-trifluoromethyl-2,3,4,9-tetrahydro-1H-carbazole-3-carboxylic acid [(S)-2-methyl-1-(N′-phenyl-hydrazinocarbonyl)-butyl]-amide] came in with a Normalized microsomal stability of 1352%.
Then `CCC(C)[C@H](NC(=O)Cc1ccccc1F)C(=O)N[C@]1(C(=O)N[C@H](C(=O)NNC(N)=O)C(C)CC)CCc2[nH]c3c(C(F)(F)F)cccc3c2C1` (stereo partly drawn) [compound 164, (R)-3-{(S)-2-[2-(2-Fluoro-phenyl)-acetylamino]-3-methyl-pentanoylamino}-8-trifluoromethyl-2,3,4,9-tetrahydro-1H-carbazole-3-carboxylic acid [(S)-1-(N′-aminocarbonyl-hydrazinocarbonyl)-2-methyl-butyl]-amide], with 1230%.
The same measure for `CCNC(=O)NC[C@@H](NC(=O)[C@@]1(NC(=O)[C@@H](NC(=O)Cc2ccccc2F)C(C)CC)CCc2[nH]c3c(C(F)(F)F)cccc3c2C1)C(C)CC` (stereo partly drawn) [compound 167, (R)-3-{(S)-2-[2-(2-Fluoro-phenyl)-acetylamino]-3-methyl-pentanoylamino}-8-trifluoromethyl-2,3,4,9-tetrahydro-1H-carbazole-3-carboxylic acid {(S)-1-[(3-ethyl-ureido)-methyl]-2-methyl-butyl}-amide]: 274%; for `CCNC(=S)NC[C@@H](NC(=O)[C@@]1(NC(=O)[C@@H](NC(=O)Cc2ccccc2F)C(C)CC)CCc2[nH]c3c(C(F)(F)F)cccc3c2C1)C(C)CC` (stereo partly drawn) [compound 173, (R)-3-{(S)-2-[2-(2-Fluoro-phenyl)-acetylamino]-3-methyl-pentanoylamino}-8-trifluoromethyl-2,3,4,9-tetrahydro-1H-carbazole-3-carboxylic acid {(S)-1-[(3-ethyl-thioureido)-methyl]-2-methyl-butyl}-amide]: 285%.
On to `CCC(C)[C@H](NC(=O)Cc1ccccc1F)C(=O)N[C@]1(C(=O)N[C@H](C(=O)NCc2cncnc2)C(C)CC)CCc2[nH]c3c(C(F)(F)F)cccc3c2C1` (some centres unmarked) [compound 183], for which the Normalized microsomal stability is 1350%.
Then `CCC(C)[C@H](NC(=O)Cc1ccccc1F)C(=O)N[C@]1(C(=O)N[C@H](C(=O)NCCCn2c[n+](C(C)(C)C)nn2)C(C)CC)CCc2[nH]c3c(C(F)(F)F)cccc3c2C1.O=C([O-])C(F)(F)F` (stereo partly drawn) [compound 188, 1-tert-butyl-4-(3-{(S)-2-[((R)-3-{(S)-2-[2-(2-fluoro-phenyl)-acetylamino]-3-methyl-pentanoylamino}-8-trifluoromethyl-2,3,4,9-tetrahydro-1H-carbazole-3-carbonyl)-amino]-3-methyl-pentanoylamino}-propyl)-4H-tetrazol-1-ium; Trifluoro-acetate], with 1259%; and `CCC(C)[C@H](NC(=O)Cc1ccccc1F)C(=O)N[C@]1(C(=O)N[C@H](CNC(=O)NCc2ccncc2)C(C)CC)CCc2[nH]c3c(C(F)(F)F)cccc3c2C1` (stereo partly drawn) [compound 190, (R)-3-{(S)-2-[2-(2-Fluoro-phenyl)-acetylamino]-3-methyl-pentanoylamino}-8-trifluoromethyl-2,3,4,9-tetrahydro-1H-carbazole-3-carboxylic acid [(S)-2-methyl-1-(3-pyridin-4-ylmethyl-ureidomethyl)-butyl]-amide], with 665%.
